According to PMC7600679, “Benzoxazole-Based Metal Complexes to Reverse Multidrug Resistance in Bacteria” (Antibiotics, 2020):
Read-outs that look alike come from different tables or passages of the source.

Legend:
[1] = test system: Staphylococcus aureus ATCC 25923; assay: Minimum inhibitory concentration (broth microdilution, CLSI); assay type: cell-based; conditions: S. aureus ATCC 25923, 18 h, visual inspection
Procedure: (§1) The compounds were further investigated against two Gram-positive strains, S. aureus ATCC 25923 (MSSA), used as the methicillin susceptible reference strain, and the methicillin- and ofloxacin-resistant S. aureus 272123 clinical isolate (MRSA), which was given by Prof. Dr. Leonard Amaral (Institute of Hygiene and Tropical Medicine, Lisbon, Portugal).
(§2) The minimum inhibitory concentrations (MICs) of compounds were determined in 96-well plates based on the Clinical and Laboratory Standard Institute guidelines (CLSI guidelines). The compounds were diluted in 100 μL of MHB. Then, 10^−4 dilution of an overnight bacterial culture in 100 μL of medium were added to each well, with the exception of the medium control wells.

S. aureus 272123 (MRSA) [2] = assay: as above; assay type: cell-based, Staphylococcus aureus; conditions: 18 h, visual inspection
Procedure: as §1, §2

E. coli AG100 [3] = assay: as above; assay type: cell-based, Escherichia coli; conditions: E. coli AG100, 18 h, visual inspection, read-out: MIC
Procedure: The strains were donated by Prof. Dr. Hiroshi Nikaido (Department of Molecular and Cell Biology and Chemistry, University of California, Berkeley, CA, USA).
as §2

E. coli AG100 A [4] = assay: as above; assay type: cell-based, Escherichia coli; conditions: 18 h
Procedure: Wild-type E. coli K-12 AG100 strain (argE3 thi-1 rpsL xyl mtl Δ(gal-uvrB) supE44) expressing the AcrAB TolC EP at its basal level and its AcrAB-TolC deleted mutant E. coli K-12 AG100 A strain. The strains were donated by Prof. Dr. Hiroshi Nikaido (Department of Molecular and Cell Biology and Chemistry, University of California, Berkeley, CA, USA).
as §2

[5] = test system: Chromobacterium violaceum 026; assay: as above; assay type: cell-based; conditions: C. violaceum 026
Procedure: (§3) The following bacterial strains were applied in the QS tests: C. violaceum 026 as sensor strain and E. cloacae 31298 isolated from clinical wound (used as N-acyl-homoserine lactone (AHL) producer); this strain induced pigment production by C. violaceum and is a model strain to study QS interactions.
as §2

[6] = test system: Enterobacter cloacae 31298; assay: as above; assay type: cell-based; conditions: E. cloacae 31298
Procedure: as §3, §2

S. aureus 272123 (MRSA) [7] = assay: Real-time ethidium bromide accumulation (efflux pump inhibition); assay type: cell-based, Staphylococcus aureus; conditions: compounds at ¼ MIC (3 at 12.5 µM), VER at 25 µM, EB 1 μg/mL, minute 30
Procedure: (§4) Since multidrug resistance EPs are very important factors contributing to multidrug resistance (MDR) in both Gram-positive and Gram-negative bacteria, the inhibition of these pumps could reverse the resistant phenotype and restore the activity of antibiotics. The effect of compounds on ethidium bromide (EB) accumulation was determined by the automated EB method. This assay was used to determine how much of the fluorescent dye and pump substrate EB was accumulated by the bacterial cells in the presence of the tested compounds. The real-time accumulation of EB was monitored for 30 min in both S. aureus and E. coli strains.
(§5) The accumulation of the efflux pump substrate EB was monitored by the automated EB method using a LightCycler real-time thermocycler (LightCycler 1.5, Roche, Indianapolis, IN, USA). An aliquot of an overnight culture of the S. aureus strains in TSB medium was inoculated into fresh TSB medium, and it was incubated until it reached an optical density (OD) of 0.6 at 600 nm. In the case of E. coli strains, the medium applied in the assay was LB broth; the preparation of the inoculum was similar to the one of S. aureus. The cells were washed with phosphate buffered saline (PBS; pH 7.4) and centrifuged at 13,000 × g for 3 min, the pellets were re-suspended in PBS (pH 7.4), and the OD was calibrated to 0.6 at 600 nm. The compounds were measured at ¼ MIC concentration (in double-concentrated form) to the EB solution in PBS. The final concentration of EB was determined according to the MIC and the fluorescent signal produced by this amount of EB. In the case of all strains, the concentration of EB was 1 μg/mL. Then, 10 μL of the EB solution plus the compound were pipetted into standard glass capillary tubes of 20 µL maximum volume (Roche, Indianapolis, USA), and 10 μL of bacterial culture (OD of 0.6 at 600 nm) were transferred to the capillaries. The capillaries containing the samples were placed into the carousel, and the fluorescence was monitored at the FL-2 channel in every minute on a real-time basis.
(§6) Based on the data obtained, the relative fluorescence index (RFI) of the last time point (minute 30) was determined as follows:RFI = (RFtreated − RFuntreated)/RFuntreated(1) where RFtreated is the relative fluorescence (RF) at the last time point of the EB retention curve in the presence of an inhibitor, and RFuntreated is the relative fluorescence at the last time point of the EB retention curve of the untreated control having the solvent control (DMSO).

S. aureus ATCC 25923 = assay: as above; assay type: cell-based, Staphylococcus aureus; conditions: compounds at ¼ MIC, EB 1 μg/mL, minute 30
Procedure: as §4, §5, §6

E. coli AG100 [8] = assay: Real-time ethidium bromide accumulation (efflux pump inhibition, AcrAB-TolC); assay type: cell-based, Escherichia coli; conditions: compounds at ¼ MIC, EB 1 μg/mL, minute 30
Procedure: as §4, §5, §6

E. coli AG100 A [9] = assay: Real-time ethidium bromide accumulation (efflux pump inhibition); assay type: cell-based, Escherichia coli; conditions: compounds at ¼ MIC, EB 1 μg/mL, minute 30
Procedure: as §4, §5, §6

[10] = test system: C. violaceum 026 sensor strain with AHL producer E. cloacae 31298; assay: Quorum sensing inhibition (agar diffusion, violacein production); assay type: cell-based, Chromobacterium violaceum; conditions: disc with 10 μL of 1 mM stock; reduction of violacein zone
Procedure: as §3
LB* was applied for these experiments. The sensor strain C. violaceum 026 and the AHL producer strains E. cloacae 31298 were inoculated as parallel lines and incubated at room temperature for 24–48 h. The inhibition of bacterial communication was determined by the agar diffusion method. Filter paper discs (7.0 mm in diameter) were impregnated with 10 μL of stock solutions (1 mM) of the compounds in DMSO. The discs were placed between the parallel lines of the sensor and the AHL producer strains. The plates were kept at room temperature for another 24–48 h, and the interactions between the strains and compounds were determined as the reduction in the size of the zone of purple pigment (violacein) production in millimeters. PMZ was applied as a positive control.

[11] = test system: MRC-5 human embryonal lung fibroblast cell line; assay: Cytotoxicity assay (MTT); assay type: cell-based
Procedure: The MRC-5 human embryonic lung fibroblast cell line (ATCC CCL-171; provider: LGC Promochem, Teddington, UK) was used in the experiments. The cells were cultivated in Eagle’s Minimal Essential Medium (EMEM; Sigma–Aldrich, St. Louis, MO, USA), supplemented with 1% non-essential amino acid mixture, 10% heat-inactivated fetal bovine serum, 2 mM L-glutamine, 1 mM Na-pyruvate, nystatin, and a penicillin–streptomycin mixture in concentrations of 100 U/L and 10 mg/L, respectively. The supplementary components were obtained from Sigma–Aldrich, St. Louis, MO, USA. The cell culture was kept in a humidified atmosphere (5% CO2, 95% air) at 37 °C.
The activity of increasing concentrations of the compounds on cell growth was determined in 96-well flat-bottomed microtiter plates by two-fold serial dilutions of the benzoxazole derivatives. The adherent human embryonic lung fibroblast cells (10^4/well) was seeded in EMEM medium in 96-well microtiter plates for 4 h prior to the assay. The serial dilutions of the compounds were made in a separate plate, and then pipetted to the plates containing the MRC-5 cell line. Culture plates were incubated at 37 °C for 24 h; at the end of the incubation period, 20 μL of MTT (3-(4,5-dimethylthiazol-2-yl)-2,5-diphenyltetrazolium bromide) solution (from a 5 mg/mL stock solution) was measured to each well. After the incubation at 37 °C for 4 h, 100 μL of sodium dodecyl sulfate (SDS) solution (10% SDS in 0.01 M HCl) was added to each well to dissolve the formazan crystals and the samples were further incubated at 37 °C overnight. Cell growth was calculated by measuring the OD at 540 nm (ref. 630 nm) with a Multiscan EX ELISA reader. The cytotoxicity was expressed as IC50 values, defined as the inhibitory dose that reduces the growth of the cells exposed to the tested compounds by 50%.

S. aureus MRSA 272123 = assay: Resistance modulation (MIC reduction) assay with CIP and TET; assay type: cell-based, Staphylococcus aureus; conditions: for Reduction of the MIC value of CIP: compound at a quarter of the MIC; for CIP MIC in combination with compounds: compound at ¼ MIC, value is the MIC of ciprofloxacin
Procedure: (§7) The resistance modulation effects of compounds with ciprofloxacin (CIP) and tetracycline (TET) antibiotics were evaluated by the MIC reduction method on the Gram-negative E. coli AG100, AG100 A, and the Gram-positive S. aureus ATCC and MRSA strains.
(§8) The chemosensitizing activity of benzoxazole-type ligands and their metal complexes was determined based on the MIC values of the antibiotics in the presence of sub-inhibitory concentrations of the compounds (¼ MIC) in both Gram-negative and Gram-positive strains. The MICs were determined in strains by the two-fold broth microdilution method in 96-well plates, using serial dilutions of TET and CIP. The first four rows contained two-fold dilutions of antibiotics, and combinations of the TET and CIP and tested compounds were transferred into the last four rows. The 10^−4 dilution of an overnight bacterial culture in 50 μL of MHB was then measured to each well, except for the medium control wells. The plates were kept at 37 °C for 18 h. MIC values of antibiotics and their combination with tested compounds were detected by visual inspection.

E. coli AG100 [12] = assay: as above; assay type: cell-based, Escherichia coli; conditions: compound at ¼ MIC; for CIP MIC in combination with compounds: value is the MIC of ciprofloxacin
Procedure: as §7, §8

[13] = E. coli AG100 A (AcrAB-TolC deleted), visual inspection

[O-]C(=Cc1nc2ccccc2o1)C(F)(F)F.[O-]C(=Cc1nc2ccccc2o1)C(F)(F)F.[Zn+2] [Compound 4]
MIC [1]: 12.5 µM | MIC (S. aureus 272123 (MRSA) [2]): 6.25 µM | MIC (E. coli AG100 [3]): 25 µM | MIC (E. coli AG100 A [4]; [13]): 25 µM | MIC [5]: >100 µM | MIC [6]: >100 µM | Relative fluorescence index (RFI) (S. aureus 272123 (MRSA) [7]): −0.11 | Relative fluorescence index (RFI) (S. aureus ATCC 25923): −0.03 | Relative fluorescence index (RFI) (E. coli AG100 [8]): −0.10 | Relative fluorescence index (RFI) (E. coli AG100 A [9]): −0.17 | Inhibition zone (quorum sensing) [10]: 47 mm | Cytotoxic effect (class in words) ([11]; 24 h): strong (IC50: 0–30) | IC50 ([11]; 24 h): 17.5 µM

[Cu+2].[O-]C(=Cc1nc2ccccc2o1)C(F)(F)F.[O-]C(=Cc1nc2ccccc2o1)C(F)(F)F [Compound 7]
MIC [1]: 12.5 µM | MIC (S. aureus 272123 (MRSA) [2]): 3.125 µM | MIC (E. coli AG100 [3]): >100 µM | MIC (E. coli AG100 A [4]; [13]): 12.5 µM | MIC [5]: >100 µM | MIC [6]: >100 µM | Reduction of the MIC value of CIP (S. aureus MRSA 272123): 2 fold | CIP MIC in combination with compounds (S. aureus MRSA 272123): 6.25 µM | CIP MIC in combination with compounds (E. coli AG100 [12]): 0.016 µM | Relative fluorescence index (RFI) (S. aureus 272123 (MRSA) [7]): −0.01 | Relative fluorescence index (RFI) (S. aureus ATCC 25923): 0.12 | Relative fluorescence index (RFI) (E. coli AG100 [8]): −0.06 | Relative fluorescence index (RFI) (E. coli AG100 A [9]): 0.11 | Cytotoxic effect (class in words) ([11]; 24 h): weak (IC50: 61–100) | IC50 ([11]; 24 h): 76.1 µM

O.O.[Ni+2].[O-]C(=Cc1nc2ccccc2o1)C(F)(F)F.[O-]C(=Cc1nc2ccccc2o1)C(F)(F)F [Compound 8]
MIC [1]: 25 µM | MIC (S. aureus 272123 (MRSA) [2]): 6.25 µM | MIC (E. coli AG100 [3]): 50 µM | MIC (E. coli AG100 A [4]; [13]): 25 µM | MIC [5]: >100 µM | MIC [6]: >100 µM | Reduction of the MIC value of CIP (S. aureus MRSA 272123): 2 fold | CIP MIC in combination with compounds (S. aureus MRSA 272123): 6.25 µM | Reduction of the MIC of CIP (E. coli AG100 [12]): 2 fold | CIP MIC in combination with compounds (E. coli AG100 [12]): 0.008 µM | Relative fluorescence index (RFI) (S. aureus 272123 (MRSA) [7]): −0.01 | Relative fluorescence index (RFI) (S. aureus ATCC 25923): −0.20 | Relative fluorescence index (RFI) (E. coli AG100 [8]): 0.11 | Relative fluorescence index (RFI) (E. coli AG100 A [9]): −0.15 | Cytotoxic effect (class in words) ([11]; 24 h): strong (IC50: 0–30) | IC50 ([11]; 24 h): 12.2 µM

FC(F)(F)C1=Cc2oc3ccccc3[n+]2[Mg-2]2([O]1)[O]C(C(F)(F)F)=Cc1oc3ccccc3[n+]12 [Compound 9]
MIC ([1]; Staphylococcus aureus, ATCC25923): 25 µM | MIC (S. aureus 272123 (MRSA) [2]; Staphylococcus aureus): 6.25 µM | MIC (E. coli AG100 [3]; Escherichia coli): 50 µM | MIC (E. coli AG100 A [4]; Escherichia coli, AG100A): 25 µM | MIC ([5]; Chromobacterium violaceum): > 100 µM | MIC ([6]; Enterobacter cloacae): > 100 µM | Reduction of the MIC value of CIP (S. aureus MRSA 272123): 2 fold | CIP MIC in combination with compounds (S. aureus MRSA 272123): 6.25 µM | Reduction of the MIC of CIP (E. coli AG100 [12]): 2 fold | CIP MIC in combination with compounds (E. coli AG100 [12]): 0.008 µM | Cytotoxic effect (class in words) ([11]; 24 h): no (IC50 > 100 µM) | IC50 ([11]; Homo sapiens, MRC5, 24 h): > 100 µM

CC(CN1c2ccccc2Sc2ccccc21)N(C)C (stereo not drawn) [PMZ, promethazine, reference compound]
Inhibition zone (quorum sensing) [10]: 16 mm
